Data from PubChem BioAssay (NCI).
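Assay format: 96-well plates, 48-hour exposure. GI50: concentration for 50% inhibition of growth. The concentration for full growth arrest is given as TGI.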

How the values were obtained:
Test in all cases: inhibition of tumour cell growth, NCI panel, 48 h
[1] = system: HCT-15 colon
[2] = system: NCI-H23 lung
[3] = system: NCI-H522 lung
[4] = system: NCI-H460 lung
[5] = system: LOX IMVI melanoma
[6] = system: SF-295 CNS
[7] = system: HOP-92 NSCLC
[8] = system: MDA-MB-231 breast
[9] = system: SK-MEL-5 melanoma
[10] = system: SW-620 colon

| Structure (SMILES) | TGI [1] [µM] | TGI [2] [µM] | TGI [3] [µM] | TGI [4] [µM] | TGI [5] [µM] | TGI [6] [µM] | TGI [7] [µM] | TGI [8] [µM] | TGI [9] [µM] | TGI [10] [µM] | GI50 [1] [µM] | GI50 [2] [µM] | GI50 [3] [µM] | GI50 [4] [µM] | GI50 [5] [µM] | GI50 [6] [µM] | GI50 [7] [µM] | GI50 [8] [µM] | GI50 [9] [µM] | GI50 [10] [µM] |
| --- | --- | --- | --- | --- | --- | --- | --- | --- | --- | --- | --- | --- | --- | --- | --- | --- | --- | --- | --- | --- |
| Cn1cncc1CC1COC(=O)C1C(O)c1ccccc1 (centres undefined) | > 100 | > 100 | > 100 | > 100 | > 100 | > 100 | > 100 | > 100 | > 100 | > 100 | – | – | – | – | – | – | – | – | – | – |
| C[CH2][Pb]([CH2]C)([CH2]C)[O]C(=O)c1ccc2ccccc2n1 | > 10 | > 10 | > 10 | > 10 | > 10 | > 10 | > 10 | > 10 | > 10 | > 10 | > 10 | > 10 | > 10 | > 10 | > 10 | > 10 | > 10 | > 10 | > 10 | > 10 |
| COc1ccc(OC)c(Cn2cc3c(c2)-c2oncc2CC3)c1 | > 100 | > 90.2 | 4.89 | 17.7 | > 100 | 11.1 | 57.8 | > 72 | 8.99 | > 100 | 2.92 | 3.8 | 1.63 | 3.26 | 4.06 | 2.43 | 3.25 | 5.02 | 2.61 | 2.87 |
| COc1ccc(-c2cc(=O)c3c(OC)c(OC)c(OC)c(OC)c3o2)cc1 | > 100 | > 100 | 66.5 | > 100 | > 100 | > 100 | > 100 | > 100 | > 100 | > 100 | – | – | – | – | – | – | – | – | – | – |
| Nc1ccc(-c2nc3ccccc3[nH]2)c2ccccc12 | 20.8 | > 30.3 | 17.1 | > 100 | 48.1 | > 28.9 | 9.61 | > 41.7 | 8.5 | > 100 | 6.35 | 3.24 | 3.14 | 3.9 | 4.97 | 1.56 | 1.57 | 8.16 | 1.65 | 1.4 |
| CCN(Cc1ccc(Cl)s1)c1ccc(CO)c(Cl)c1 | > 50.6 | 42.1 | 37 | 10 | 18.8 | 15.9 | 15.1 | 26.4 | 18.1 | > 55.2 | 4.2 | 3.2 | 15.2 | 0.202 | 5.24 | 0.352 | 0.563 | 8.74 | 1.9 | 0.506 |
| N/N=C1\CC(=O)NC(=O)N1 | > 100 | > 100 | > 100 | > 100 | > 100 | > 100 | > 100 | > 100 | > 100 | > 100 | – | – | – | – | – | – | – | – | – | – |
| O=C(O)COc1c(Cl)cc(Cl)c2cccnc12 | > 100 | > 100 | > 100 | > 100 | > 100 | > 100 | > 100 | > 100 | > 100 | > 100 | – | – | – | – | – | – | – | – | – | – |
| CCCCn1c(=O)c2c(nc3n2CCCN3CCc2ccc(OCC(=O)NCCN(CC)CC)cc2)n(CCCC)c1=O | 3.47 | 15.6 | 16.7 | 7.94 | 1.99 | 1.95 | 3.45 | 7.26 | 1.65 | 11.2 | 1.11 | 6.51 | 7.5 | 2.2 | 0.929 | 0.877 | 0.846 | 1.91 | 0.864 | 4.86 |
| Cc1ccc(NC(=O)c2ccccc2C(=O)O)cc1C | > 100 | > 100 | > 100 | > 100 | > 100 | > 100 | > 100 | > 100 | > 100 | > 100 | – | – | – | – | – | – | – | – | – | – |
| C#CCOc1cccc(Nc2ncnc3c(NC(=O)CCl)cccc23)c1 | 72.5 | 47.9 | 29.3 | 56 | 3.47 | 34.5 | 33.8 | 61 | 27.2 | 40.9 | 20.2 | 18.3 | 13.6 | 23.7 | 1.7 | 17.4 | 17 | 22.9 | 14 | 20.3 |
| Cc1cccc(NC(=O)c2sc3nc4c(cc3c2N)CN(Cc2ccccc2)CC4)c1C | > 50 | > 50 | > 50 | > 50 | > 50 | 41.6 | 47.3 | > 50 | > 50 | > 50 | 0.176 | 0.256 | 0.138 | 0.196 | 0.254 | 0.161 | 0.736 | 0.432 | 0.213 | 0.207 |
| Nc1ccccc1SCc1csc(-c2ccc(Cl)cc2)n1 | > 82.1 | > 84.6 | 31.1 | > 77.2 | 35.2 | > 100 | 60.1 | 54.6 | 28.7 | > 100 | – | – | – | – | – | – | – | – | – | – |
| CCn1c2ccccc2c2cc(/C=C(/C#N)C(N)=O)ccc21 | > 100 | > 100 | > 100 | 13.3 | > 100 | 30 | > 91.4 | > 100 | 54.2 | > 100 | 14.8 | 16.3 | 11.7 | 1.67 | 14.4 | 3.42 | 16.9 | 21 | 8.5 | 4.86 |
| COc1ccc(C(=O)N2c3ccccc3Sc3ccccc32)c(OC)c1 | > 100 | > 100 | > 100 | > 100 | > 100 | > 100 | 97.2 | > 100 | > 100 | > 100 | 0.464 | 0.776 | 0.343 | 0.406 | 0.601 | 0.484 | 0.374 | 0.83 | 0.408 | 0.412 |
| COc1ccc2c(c1)OC1=C(C(=O)OC1)C2c1cc(OC)c2c(c1)OCO2 (centres undefined) | > 100 | > 100 | 0.0472 | > 100 | > 100 | > 100 | > 100 | > 100 | 0.325 | > 100 | 0.0464 | 0.0441 | < 0.0111 | 0.0374 | 0.0683 | 0.0283 | 28.6 | 0.0689 | 0.0383 | 0.0407 |
| O=C1NC(=O)C(c2cccc(Cl)c2)=C1Nc1ccc(O)c(Cl)c1 | > 25 | > 25 | > 21 | > 25 | > 25 | > 25 | > 25 | > 25 | 18.6 | > 25 | 8.66 | 12.9 | 6.98 | 8.91 | 8.85 | 11.6 | 5.76 | 16.1 | 5.46 | 8.73 |
| CN(CC(N)=O)C(=O)N(CCCl)N=O | > 100 | > 100 | > 100 | > 100 | > 100 | > 100 | > 100 | > 100 | > 100 | > 100 | – | – | – | – | – | – | – | – | – | – |
| COc1ccc(C2[C@@H](Cl)C(=O)N2c2cc(OC)c(OC)c(OC)c2)cc1Cl (some centres undefined) | > 100 | > 100 | 0.296 | 6.95 | 20.8 | 0.648 | 85.9 | 26.1 | 0.795 | 65 | 0.191 | 0.428 | 0.0353 | 0.317 | 0.163 | 0.0411 | 2.29 | 0.273 | 0.102 | 0.132 |
| BrCc1ccc(CBr)cc1 | > 75.2 | > 35.4 | 52.2 | 17.4 | > 100 | 15.8 | 53.7 | 35.1 | 40.2 | 17.6 | 5.44 | 10.7 | 18.2 | 4.84 | 4.51 | 5.12 | 18.7 | 13.9 | 14.3 | 5.1 |
| O=C(Nc1cccc(Nc2ncc(Br)c(NCCc3cnc[nH]3)n2)c1)N1CCCC1 | > 67 | 21.3 | 27.6 | 15 | 7.4 | 20.8 | 7.93 | 29.2 | 22.1 | 11.4 | 21.7 | 2.98 | 11.5 | 3.68 | 1.11 | 3.72 | 0.932 | 4.07 | – | 1.27 |
